Tests used:
Format in all cases: cell-based
DENV-3 strain H87 [1] = experiment: Tetravalent RT-qPCR assay Protocol A, serotype 3; settings: Dengue virus, DENV3, 72 h, RT-qPCR serotype 3 H87, Vero cells, day 3
Experimental: (§1) The antiviral activity of the compounds of the invention was tested against DENV-1 strain TC974#666 (NCPV; Table 6), DENV-2 strain 16681 (Table 7), DENV-3 strain H87 (NCPV; Table 8) and DENV-4 strains H241 (NCPV; Table 9A) and SG/06K2270DK1/2005 (Eden; Table 9B) in a RT-qPCR assay. Therefore, Vero cells were infected with either DENV-1, or -2, or -3, or -4 in the presence or absence of test compounds. At day 3 post-infection, the cells were lysed and cell lysates were used to prepare cDNA of both a viral target (the 3′UTR of DENV; Table 2) and a cellular reference gene (β-actin, Table 2). Subsequently, a duplex real time PCR was performed on a Lightcycler480 instrument. The generated Cp value is inversely proportional to the amount of RNA expression of these targets. Inhibition of DENV replication by test compound results in a shift of Cp's for the 3′UTR gene. On the other hand, if a test compound is toxic to the cells, a similar effect on β-actin expression will be observed. The comparative ΔΔCp method is used to calculate EC50, which is based on the relative gene expression of the target gene (3′UTR) normalized with the cellular housekeeping gene (β-actin).
(§2) The culture medium consisted of minimal essential medium supplemented with 2% of heat-inactivated fetal calf serum, 0.04% gentamycin (50 mg/mL) and 2 mM of L-glutamine. Vero cells, obtained from ECACC, were suspended in culture medium and 75 μL/well was added in 96-well plates (10000 cells/well), which already contain the antiviral compounds. […] In addition, each plate contains wells which are assigned as virus controls (containing cells and virus in the absence of compound) and cell controls (containing cells in the absence of virus and compound). Once the cells were added in the plates, the plates were incubated in a fully humidified incubator (37° C., 5% CO2) until the next day. Dengue viruses serotype-1, 2, 3 and 4 were diluted in order to obtain a Cp of ˜22-24 in the assay. Therefore, 25 μL of virus suspension was added to all the wells containing test compound and to the wells assigned as virus control. In parallel, 25 μL of culture medium was added to the cell controls. Next, the plates were incubated for 3 days in a fully humidified incubator (37° C., 5% CO2). After 3 days, the supernatant was removed from the wells and the cells were washed twice with ice-cold PBS (˜100 μL). The cell pellets within the 96-well plates were stored at −80° C. for at least 1 day. Next, RNA was extracted using the Cells-to-CT™ lysis kit, according to the manufacturer's guideline (Life Technologies). The cell lysates can be stored at −80° C. or immediately used in the reverse transcription step.
(§3) In preparation of the reverse transcription step, mix A (table 3A) was prepared and 7.57 μL/well was dispensed in a 96-well plate. After addition of 5 μL of the cell lysates, a five minute denaturation step at 75° C. was performed (table 3B). Afterwards, 7.43 μL of mix B was added (table 3C) and the reverse transcription step was initiated (table 3D) to generate cDNA.
(§4) Finally, a RT-qPCR mix was prepared, mix C (table 4A), and 22.02 μL/well was dispensed in 96-well LightCycler qPCR plates to which 3 μL of cDNA was added and the qPCR was performed according to the conditions in table 4B on a LightCycler 480.
(§5) Using the LightCycler software and an in-house LIMS system, dose response curves for each compound were calculated and the half maximal effective concentration (EC50) and the half maximal cytotoxic concentration (CC50) were determined.

[2] = system: DENV-4 strain SG/06K2270DK1/2005 (Eden); experiment: Tetravalent RT-qPCR assay Protocol A, serotype 4 EDEN; settings: Dengue virus, DENV4, Vero, 72 h
Experimental: as §1, §2, §3, §4, §5

DENV-3 strain H87 [3] = experiment: Tetravalent RT-qPCR assay Protocol B, serotype 3; settings: Dengue virus, DENV3, 168 h, RT-qPCR serotype 3 H87, 7 days
Experimental: The antiviral activity of the compounds of the invention was tested against DENV-1 strain Djibouti strain (D1/H/IMTSSA/98/606; Table 6), DENV-2 strain NGC (Table 7), DENV-3 strain H87 (Table 8) and DENV-4 strain SG/06K2270DK1/2005 (Table 9B) in a RT-qPCR assay. Vero-B or Vero-M cells (5×10^4) were seeded in 96-well plates. One day later, culture medium was replaced with 100 μL assay medium containing a 2×, 3× or 5× serial dilution of the compound (concentration range: 50 μg/mL-0.00038 μg/mL, 50 μg/mL-0.0076 μg/mL, and 50 μg/mL-0.00013 μg/mL, respectively) and 100 μL of dengue virus inoculum (DENV). Following a 2 hour incubation period, the cell monolayer was washed 3 times with assay medium to remove residual, non-adsorbed virus and cultures were further incubated for either 4 days (DENV-2 NGC) or 7 days (DENV-1 Djibouti strain D1/H/IMTSSA/98/606, DENV-3 strain H87 prototype, DENV-4 strain H241, and DENV-4 strain EDEN) in the presence of the inhibitor. Supernatant was harvested and viral RNA load was determined by real-time quantitative RT-PCR. The 50% effective concentration (EC50), which is defined as the compound concentration that is required to inhibit viral RNA replication by 50%, was determined using logarithmic interpolation.
RNA was isolated from 100 μL (or in some circumstances 150 μL) supernatant with the NucleoSpin 96 Virus kit (Filter Service, Duren, Germany) as described by the manufacturer. The sequences of the TaqMan primers (DENV-For, DENV-Rev; Table 5) and TaqMan probes (DENV-Probe Table 5) were selected from non-structural gene 3 (NS3) or NS5, of the respective flaviviruses using Primer Express software (version 2.0; Applied Biosystems, Lennik, Belgium). The TaqMan probe was fluorescently labelled with 6-carboxyfluorescein (FAM) at the 5′ end as the reporter dye, and with minor groove binder (MGB) at the 3′ end as the quencher (Table 5). One-step, quantitative RT-PCR was performed in a total volume of 25 μL, containing 13.9375 μL H2O, 6.25 μL master mix (Eurogentec, Seraing, Belgium), 0.375 μL forward primer, 0.375 μL reverse primer, 1 μL probe, 0.0625 μL reverse transcriptase (Eurogentec) and 3 μL sample. RT-PCR was performed using the ABI 7500 Fast Real-Time PCR System (Applied Biosystems, Branchburg, New Jersey, USA) using the following conditions: 30 min at 48° C. and 10 min at 95° C., followed by 40 cycles of 15 s at 95° C. and 1 min at 60° C. The data was analyzed using the ABI PRISM 7500 SDS software (version 1.3.1; Applied Biosystems). For absolute quantification, standard curves were generated using 10-fold dilutions of template preparations of known concentrations.

Which EC50 (DENV-3 strain H87 [1]) does the source give for `COc1cc(NC(C(=O)c2c[nH]c3cc(F)ccc23)c2ccc(Cl)cc2OC)cc(S(C)(=O)=O)c1` (single isomer, unassigned) [Compound 1A, 2-(4-chloro-2-methoxyphenyl)-1-(6-fluoro-1H-indol-3-yl)-2-((3-methoxy-5-(methylsulfonyl)phenyl)amino)ethanone] here?
Its EC50 is 0.023 µM.

And the EC50 [2]?
Its EC50 is 0.0024 µM.

And the EC50 (DENV-3 strain H87 [3])?
Its EC50 is under 0.015 µM.

How did the EC50 (DENV-3 strain H87 [1]) turn out when `COc1cc(NC(C(=O)c2c[nH]c3c(C)c(F)ccc23)c2ccc(Cl)cc2OC)cc(S(C)(=O)=O)c1` (single isomer, unassigned) [Compound 2A, 2-(4-chloro-2-methoxyphenyl)-1-(6-fluoro-7-methyl-1H-indol-3-yl)-2-((3-methoxy-5-(methylsulfonyl)phenyl)amino)ethanone] was run?
Its EC50 is 0.019 µM.

And the EC50 [2]?
Its EC50 is 0.0013 µM.

And the EC50 (DENV-3 strain H87 [3])?
Its EC50 is under 0.014 µM.

`COc1cc(NC(C(=O)c2c[nH]c3cc(OC)c(C)cc23)c2ccc(Cl)cc2OC)cc(S(C)(=O)=O)c1` (single isomer, unassigned) [Compound 4A, 2-(4-chloro-2-methoxyphenyl)-2-((3-methoxy-5-(methyl-sulfonyl)phenyl)amino)-1-(6-methoxy-5-methyl-1H-indol-3-yl)ethanone] was tested. Which EC50 (DENV-3 strain H87 [1]) did it give?
Its EC50 is 0.015 µM.

What about the EC50 [2] of the same compound?
Its EC50 is 0.00055 µM.

What about the EC50 (DENV-3 strain H87 [3]) of the same compound?
Its EC50 is under 0.014 µM.

How did the EC50 (DENV-3 strain H87 [1]) turn out when `COc1cc(NC(C(=O)c2c[nH]c3cc(OC)c(F)cc23)c2ccc(Cl)cc2OC)cc(S(C)(=O)=O)c1` (single isomer, unassigned) [Compound 5A, 2-(4-chloro-2-methoxyphenyl)-1-(5-fluoro-6-methoxy-1H-indol-3-yl)-2-((3-methoxy-5-(methylsulfonyl)phenyl)amino)ethanone] was run?
Its EC50 is 0.053 µM.

And the EC50 [2]?
The EC50 was 0.0029 µM.

What about the EC50 (DENV-3 strain H87 [3]) of the same compound?
The EC50 was 0.022 µM.

With `COc1cc(NC(C(=O)c2c[nH]c3c(C)c(OC)ccc23)c2ccc(Cl)cc2OC)cc(S(C)(=O)=O)c1` (single isomer, unassigned) [Compound 6A, 2-(4-chloro-2-methoxyphenyl)-2-((3-methoxy-5-(methyl-sulfonyl)phenyl)amino)-1-(6-methoxy-7-methyl-1H-indol-3-yl)ethanone] as the compound, how does the EC50 (DENV-3 strain H87 [1]) read?
The EC50 was 0.019 µM.

And the EC50 [2]?
Its EC50 is 0.00042 µM.

What about the EC50 (DENV-3 strain H87 [3]) of the same compound?
The EC50 was under 0.014 µM.

From patent publication US12172959B2, “Mono- or di-substituted indole derivatives as dengue viral replication inhibitors” (priority 2015, dated 2024)
